Measured values: patent US10960088B2, “Macrocycles, cobalt and iron complexes of same, and methods of making and using same” (The Research Foundation for The State University of New York, priority 2013, dated 2021)

Tests used:
[1] = CEST MR phantom imaging on 4.7 T scanner; details: 4 mM complex, pH 7.4-7.5, 37° C.; for % CEST: 20 mM HEPES, 100 mM NaCl, 4.7 T MRI scanner
Protocol: CEST MR images were acquired at 4.7 Tesla preclinical MR scanner using a 35 mm transceiver coil (ParaVision 3.0.2, Bruker Biospin, Billerica, Mass.) as detailed elsewhere. Two spoiled gradient-echo images (TE/TR=2.1/5010 ms, flip angle=90 deg) were acquired at 37° C. after employing a pulse train comprised of five Gauss pulses ([…] for 1 second each, interpulse delay of 200 μs) applied symmetrically about the bulk water resonance.
Image processing was carried out using in-house software algorithms developed in MATLAB (MathWorks, Natick, Mass.). Each image was normalized to the mean intensity of the buffer/salt phantom, and the mean signal intensity of each compound was sampled. The percent change in signal, or CEST effect (CE), was calculated as: CE=(1−SIon/SIoff)*100%, where SIon and SIoff represent the mean signal intensity of each sample with the pre-saturation pulse applied on- and off-resonance of the exchangeable protons, respectively. CEST images (FIGS. 14, 15) were calculated by determining CE on a pixel-by-pixel basis in MATLAB. To improve visualization of the CEST effect, images were filtered with a spatial averaging filter (kernel size=5×5), background noise was removed using a binary mask of the samples, and a ‘hotiron’ color lookup table was applied. […] Imaging parameters for the FID-FISP acquisition include: matrix=128×128, field of view=3.2×3.2 cm, TE/TR=1.5/3.0 ms, flip angle=90, number of repetitions=20. Processing was carried out as above with the exception that the 20 repetition image datasets were averaged together prior to normalization by the buffer signal intensity. The experiment was repeated with three separate preparations of [Co(CCRM)]^2+.
CEST images were acquired on a 4.7 Tesla preclinical MR scanner using a 35 mm radiofrequency coil and the ParaVision 3.0.2 research platform (Bruker Biospin, Billerica, Mass.). A pair of gradient-echo MR images were acquired at either 37° C. with a pre-saturation pulse train comprised of five 1 second Gauss pulses (12 μT, 200 μs interpulse delay) applied symmetrically about the bulk water resonance (+/−135 ppm). Other pertinent acquisition parameters include: echo time/repetition time=2.1/5010 ms, flip angle=90 deg, acquisition matrix=160×160, slice thickness=2 mm, field of view=32×32 mm, averages=1.
To determine the CEST effect, each image was normalized to the signal intensity of the buffer and salt-only phantom and the normalized image intensity of each phantom was sampled using commercially available software (Analyze 7.0, AnalyzeDirect Inc., Overland Park, Kans.). The percent loss of signal due to […] exchange was calculated using the following equation: % CEST=1−SIon/SIoff, eq. 9 where SIon and SIoff are the image intensities of each sample acquired with on-resonance and off-resonance pre-saturation pulses, respectively. To create the CEST image (FIG. 46), raw k-space data was zero-filled to a 512×512 matrix, reconstructed to spatial domain, filtered with a spatial low-pass filter (kernel size: 11×11) to improve signal-to-noise, and then normalized by image intensity of the buffer and salt-only phantom. The % CEST effect was calculated pixel-by-pixel using the normalized on/off resonance image pair in MATLAB (MathWorks, Natick, Mass.). Phantoms in the CEST image were isolated using binary masking techniques, and a “hot-iron” pseudocolor lookup table was applied to enhance perceptual contrast between samples.

[2] = Exchange rate constants (omega plot); details: 10 mM complex; for kex: 20 mM HEPES pH 7.4, 100 mM NaCl, B1 8-24 μT, presat 4 s, 37° C., 11.7 T
Protocol: Exchange rate constants were calculated following a previously reported procedure. Measurements of on-resonance (Mz) and off-resonance (Mo) were acquired at different presaturation pulse powers between 350-1000 Hz (8-24 μT) applied for 4 seconds at 37° C. The exchange rate constant (kex) is calculated from the x-intercept from the plot of Mz/(Mo−Mz) against 1/ω1^2 (ω1 in rad/s). The rate constant, kex, is converted into units of s^−1. Samples contained 10 mM Co^II complex, 20 mM HEPES pH 7.4, and 100 mM NaCl.
The exchange rate constants were calculated by using a previously reported procedure. The magnetization of the on-resonance (Mz) and off-resonance (Mo) were acquired at different pre-saturation pulse powers between 350-1090 Hz applied for 4 seconds. To calculate the exchange rate constant (kb), the x-intercept (−1/kb^2) was obtained from the plot of Mz/(Mo−Mz) against 1/ω1^2 (ω1 in rad/s). Samples contained 16 mM [Co(TPT)]Cl2, 200 mM NaCl, and 40 mM MES or HEPES at pH 6.4-7.5. Measurements were carried out at 37° C.

[3] = Effective magnetic moment in solution from magnetic susceptibility (NMR); assay type: physicochemical; details: for μeff: 5 mM Co^II complex in D2O; for magnetic moment: 25° C. in D2O
Protocol: The effective magnetic moment (μeff) was calculated by using a previously known method. 5 mM Co^II complex and 5% t-butanol by volume was placed in a NMR insert while the outer NMR tube contained 5% by volume t-butanol in D2O. The μeff was calculated at 298 K (T) and monitored over a period of 72 hours using the following approach.
The mass susceptibility of solute (χg) was calculated by obtaining the observed frequency shift of the reference (Δf) in Hz, the spectrometer frequency (f) in Hz, the mass of the substance per cm^3 of solution (m), and the mass susceptibility of solvent D2O (χ0=−0.6466×10^−6 cm^3/g). The last term is neglected due to the minimal contribution to mass susceptibility of solute. The molar susceptibility (χm) is the product of χg multiplied by the molecular weight of the Co^II complex.
The effective magnetic moment was calculated by using a previously known method. In a typical experiment, oxygen-free solution of 8-20 mM [Co(TPT)]^2+ in deuterium oxide, pD 7.0, containing 5% tert-butanol by volume was placed in an NMR tube, while a reference solution of 5% tert-butanol (v/v) in deuterium oxide, pD 7.0, was placed into NMR tube insert. All solutions of [Co(TPT)]^2+ were purged with argon and kept in the absence of air. The effective magnetic moment (μeff) was calculated at 298 K (T) using the following equations 7-8. In these equations the mass susceptibility of solute (χg) was calculated by obtaining the observed frequency shift of the reference (Δf) in Hz, the spectrometer frequency (f) in Hz, the mass of the substance per cm^3 of the solution (m), and the mass susceptibility of deuterium oxide (χ0=−0.6466×10^−6 cm^3/g). The last term in eq. SI is neglected due to the minimal contribution to mass susceptibility of solute. The molar susceptibility (χm) is the product of χg multiplied by the molecular weight of the [Co(TPT)]Cl2 complex. Reported value of the effective magnetic moment was obtained by averaging of three independent experiments. χg=(−3Δf)/(4πfm)+χ0+[χ0(d0−ds)]/m eq. 7 μeff=2.84(χmT)^1/2 eq. 8

Structure (SMILES) | % CEST, peak at 95 ppm ([1]; peak at 95 ppm, 4.7 T) | % CEST, peak at 112 ppm ([1]; peak at 112 ppm, 4.7 T) | kex, peak at 95 ppm ([2]; peak at 95 ppm, pH 7.4, 37° C.) | kex, peak at 112 ppm ([2]; peak at 112 ppm, pH 7.4, 37° C.) | μeff [3] | magnetic moment [3] | % CEST [1] | kex [2]
NC(=O)CN1CCCN(CC(N)=O)CCN(CC(N)=O)CCCN(CC(N)=O)CC1.[Co+2] [[Co(CCRM)]^2+] | 5% | 8% | 910 s⁻¹ | 510 s⁻¹ | 4.6 µB | 4.6 μB |  | 
NC(=O)CN1CCOCCOCCN(CC(N)=O)CCOCC1.[Co+2] [[Co(NOPE)]^2+] |  |  |  |  | 4.1 µB | 4.1 μB | 12% | 240 s⁻¹
NC(=O)CN1CCN(CC(N)=O)CCN(CC(N)=O)CCN(CC(N)=O)CC1.[Co+2] [[Co(TCMC)]^2+] |  |  |  |  | 4.5 µB | 4.5 μB | 12% | 300 s⁻¹
NC(=O)CN1CCN(CC(N)=O)CCN(CC(N)=O)CC1.[Co+2] [[Co(TCMT)]^2+] |  |  |  |  | 5.2 µB | 5.2 μB | 8% | 890 s⁻¹
